Experimental data: PubChem BioAssay AID651981 (The Scripps Research Institute Molecular Screening Center, 2013)
The source made the active and inactive calls. The rule behind the calls is not given here.

Experiments:
Experiment in all cases: PubChem AID 651981
[1] = system: DPP4; conditions: BW5147 mouse T-cell proteome, ABPP-SILAC LC-MS ratio, at 1 µM, hits give low values
[2] = system: AADACL1; conditions: BW5147 mouse T-cell proteome, ABPP-SILAC LC-MS ratio, at 1 µM, hits give low values
[3] = system: PPME1; conditions: BW5147 mouse T-cell proteome, ABPP-SILAC LC-MS ratio, at 1 µM, hits give low values
[4] = system: PRCP; conditions: BW5147 mouse T-cell proteome, ABPP-SILAC LC-MS ratio, at 1 µM, hits give low values
[5] = molecular target: Acyl-protein thioesterase 1 (Mus musculus) (UniProt P97823); conditions: BW5147 mouse T-cell proteome, ABPP-SILAC LC-MS ratio; LYPLA1; at 1 µM; hits give low values
[6] = system: LIPE; conditions: BW5147 mouse T-cell proteome, ABPP-SILAC LC-MS ratio, at 1 µM, hits give low values
[7] = system: ACOT2; conditions: BW5147 mouse T-cell proteome, ABPP-SILAC LC-MS ratio, at 1 µM, hits give low values
[8] = system: PNPLA6; conditions: BW5147 mouse T-cell proteome, ABPP-SILAC LC-MS ratio, at 1 µM, hits give low values
[9] = system: PAFAH1B3; conditions: BW5147 mouse T-cell proteome, ABPP-SILAC LC-MS ratio, at 1 µM, hits give low values
[10] = system: SEC23IP; conditions: BW5147 mouse T-cell proteome, ABPP-SILAC LC-MS ratio, at 1 µM, hits give low values
[11] = molecular target: Platelet-activating factor acetylhydrolase 2, cytoplasmic (Mus musculus) (UniProt Q8VDG7); conditions: BW5147 mouse T-cell proteome, ABPP-SILAC LC-MS ratio; PAFAH2; at 1 µM; hits give low values
[12] = system: LYPLA2; conditions: BW5147 mouse T-cell proteome, ABPP-SILAC LC-MS ratio, at 1 µM, hits give low values
[13] = system: ABHD12; conditions: BW5147 mouse T-cell proteome, ABPP-SILAC LC-MS ratio, at 1 µM, hits give low values
[14] = system: FASN; conditions: BW5147 mouse T-cell proteome, ABPP-SILAC LC-MS ratio, at 1 µM, hits give low values
[15] = system: PNPLA7; conditions: BW5147 mouse T-cell proteome, ABPP-SILAC LC-MS ratio, at 1 µM, hits give low values
[16] = system: FAAH; conditions: BW5147 mouse T-cell proteome, ABPP-SILAC LC-MS ratio, at 1 µM, hits give low values
[17] = system: PAFAH1B2; conditions: BW5147 mouse T-cell proteome, ABPP-SILAC LC-MS ratio, at 1 µM, hits give low values
[18] = system: ESD; conditions: BW5147 mouse T-cell proteome, ABPP-SILAC LC-MS ratio, at 1 µM, hits give low values
[19] = system: DPP8; conditions: BW5147 mouse T-cell proteome, ABPP-SILAC LC-MS ratio, at 1 µM, hits give low values
[20] = system: DPP9; conditions: BW5147 mouse T-cell proteome, ABPP-SILAC LC-MS ratio, at 1 µM, hits give low values
[21] = system: TPP2; conditions: BW5147 mouse T-cell proteome, ABPP-SILAC LC-MS ratio, at 1 µM, hits give low values
[22] = molecular target: Prolyl endopeptidase (Mus musculus) (UniProt Q9QUR6); conditions: BW5147 mouse T-cell proteome, ABPP-SILAC LC-MS ratio; PREP; at 1 µM; hits give low values
[23] = system: APEH; conditions: BW5147 mouse T-cell proteome, ABPP-SILAC LC-MS ratio, at 1 µM, hits give low values
[24] = system: ACOT1; conditions: BW5147 mouse T-cell proteome, ABPP-SILAC LC-MS ratio, at 1 µM, hits give low values
[25] = molecular target: Monoacylglycerol lipase ABHD6 (Mus musculus) (UniProt Q8R2Y0); conditions: BW5147 mouse T-cell proteome, ABPP-SILAC LC-MS ratio, at 1 µM, hits give low values
Monoacylglycerol lipase ABHD6 (Mus musculus), sequence (Q8R2Y0 whole entry, looked up): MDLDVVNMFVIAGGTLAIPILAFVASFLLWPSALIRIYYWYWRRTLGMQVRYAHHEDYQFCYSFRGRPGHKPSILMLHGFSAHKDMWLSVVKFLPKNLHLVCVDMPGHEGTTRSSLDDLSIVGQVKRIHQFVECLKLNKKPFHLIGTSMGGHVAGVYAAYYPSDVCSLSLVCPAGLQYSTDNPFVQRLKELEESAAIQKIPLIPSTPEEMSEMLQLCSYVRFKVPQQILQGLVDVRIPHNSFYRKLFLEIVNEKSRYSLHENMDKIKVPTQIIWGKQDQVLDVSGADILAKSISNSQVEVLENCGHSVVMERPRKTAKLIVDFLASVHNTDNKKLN

Acyl-protein thioesterase 1 (Mus musculus), sequence (P97823 whole entry, looked up): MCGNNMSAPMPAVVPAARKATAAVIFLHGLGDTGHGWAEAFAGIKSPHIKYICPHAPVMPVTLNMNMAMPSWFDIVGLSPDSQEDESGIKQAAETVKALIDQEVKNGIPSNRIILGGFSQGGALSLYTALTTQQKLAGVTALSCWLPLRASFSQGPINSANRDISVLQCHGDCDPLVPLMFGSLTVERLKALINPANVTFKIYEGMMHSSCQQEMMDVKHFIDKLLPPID
Platelet-activating factor acetylhydrolase 2, cytoplasmic (Mus musculus), sequence (Q8VDG7 whole entry, looked up): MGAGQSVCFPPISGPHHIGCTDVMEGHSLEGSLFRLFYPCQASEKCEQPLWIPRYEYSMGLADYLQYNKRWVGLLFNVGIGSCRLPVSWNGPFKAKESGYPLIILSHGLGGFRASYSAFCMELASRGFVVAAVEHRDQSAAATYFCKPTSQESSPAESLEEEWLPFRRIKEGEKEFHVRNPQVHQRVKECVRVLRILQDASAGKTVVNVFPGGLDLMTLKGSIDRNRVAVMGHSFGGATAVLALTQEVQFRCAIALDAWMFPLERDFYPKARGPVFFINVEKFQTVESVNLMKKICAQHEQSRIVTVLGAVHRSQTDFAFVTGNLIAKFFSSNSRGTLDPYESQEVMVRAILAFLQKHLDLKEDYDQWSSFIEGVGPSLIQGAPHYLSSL
Prolyl endopeptidase (Mus musculus), sequence (Q9QUR6 whole entry, looked up): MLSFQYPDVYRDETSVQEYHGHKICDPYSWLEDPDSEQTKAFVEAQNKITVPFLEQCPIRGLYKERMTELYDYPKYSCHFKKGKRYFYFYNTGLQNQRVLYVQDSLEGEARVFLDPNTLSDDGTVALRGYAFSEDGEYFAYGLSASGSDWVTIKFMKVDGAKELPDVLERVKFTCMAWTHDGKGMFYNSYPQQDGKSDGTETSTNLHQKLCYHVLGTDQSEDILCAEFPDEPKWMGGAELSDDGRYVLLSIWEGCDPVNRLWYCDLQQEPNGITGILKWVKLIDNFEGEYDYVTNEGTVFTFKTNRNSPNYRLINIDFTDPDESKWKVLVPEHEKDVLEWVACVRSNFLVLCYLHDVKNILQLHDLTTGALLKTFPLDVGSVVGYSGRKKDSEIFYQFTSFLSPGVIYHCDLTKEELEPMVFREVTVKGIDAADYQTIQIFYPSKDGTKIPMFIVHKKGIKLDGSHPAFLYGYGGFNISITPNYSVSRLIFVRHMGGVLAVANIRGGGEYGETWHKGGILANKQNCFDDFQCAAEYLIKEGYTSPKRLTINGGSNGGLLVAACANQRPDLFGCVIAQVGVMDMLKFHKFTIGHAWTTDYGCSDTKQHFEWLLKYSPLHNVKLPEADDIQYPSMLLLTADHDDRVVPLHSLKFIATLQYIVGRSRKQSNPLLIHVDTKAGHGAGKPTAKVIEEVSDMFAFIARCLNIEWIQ

SMILES: COc1ccc(N2CCN(C(=O)c3cc4c(s3)-c3ccccc3S(=O)(=O)C4)CC2)cc1
- remaining activity ratio (inhibitor/DMSO) [1]: 1.17 (inactive)
- remaining activity ratio (inhibitor/DMSO) [2]: 1.46 (inactive)
- remaining activity ratio (inhibitor/DMSO) [3]: 1.34 (inactive)
- remaining activity ratio (inhibitor/DMSO) [4]: 1.56 (inactive)
- remaining activity ratio (inhibitor/DMSO) [5]: 1.08 (inactive)
- remaining activity ratio (inhibitor/DMSO) [6]: 0.88 (inactive)
- remaining activity ratio (inhibitor/DMSO) [7]: 1.25 (inactive)
- remaining activity ratio (inhibitor/DMSO) [8]: 1.03 (inactive)
- remaining activity ratio (inhibitor/DMSO) [9]: 1.09 (inactive)
- remaining activity ratio (inhibitor/DMSO) [10]: 1.53 (inactive)
- remaining activity ratio (inhibitor/DMSO) [11]: 1.14 (inactive)
- remaining activity ratio (inhibitor/DMSO) [12]: 0.01
- remaining activity ratio (inhibitor/DMSO) [13]: 1.21 (inactive)
- remaining activity ratio (inhibitor/DMSO) [14]: 1.14 (inactive)
- remaining activity ratio (inhibitor/DMSO) [15]: 1.12 (inactive)
- remaining activity ratio (inhibitor/DMSO) [16]: 1.25 (inactive)
- remaining activity ratio (inhibitor/DMSO) [17]: 1.23 (inactive)
- remaining activity ratio (inhibitor/DMSO) [18]: 1.24 (inactive)
- remaining activity ratio (inhibitor/DMSO) [19]: 1.1 (inactive)
- remaining activity ratio (inhibitor/DMSO) [20]: 1.12 (inactive)
- remaining activity ratio (inhibitor/DMSO) [21]: 1.2 (inactive)
- remaining activity ratio (inhibitor/DMSO) [22]: 1.12 (inactive)
- remaining activity ratio (inhibitor/DMSO) [23]: 1.11 (inactive)
- remaining activity ratio (inhibitor/DMSO) [24]: 1.23 (inactive)
- remaining activity ratio (inhibitor/DMSO) [25]: 1.06 (inactive)
